From US20070015786A1, “Treatment of hot flashes, impulse control disorders and personality change due to a general medical condition” (Eli Lily and Company, priority 2003, published 2007)
Several values for one entry are separate records, joined by “and”; a condition that tells them apart may be missing. Identical values can stand only once.

Tested on: ovariectomized Sprague-Dawley rats
Experiment: Morphine withdrawal rat hot flush model (naloxone-induced tail skin temperature rise)
Type: in vivo
Details: for morphine withdrawal hot flush model responsive to agent: data not shown
Description: Simpkins et al. ((1983) Life Sci. 32:1957-1966) first published morphine withdrawal in the rat as a putative model for hot flushes, based on observations highlighting the similarity of symptoms of gonadal steroid withdrawal to those of opioid withdrawal. Although less severe, the signs and symptoms associated with clinical hot flushes, or estrogen deficiency, in the rat parallel those produced by naloxone-precipitated withdrawal in morphine dependent rats, including: 1) an increase in tail skin temperature; 2) a surge in luteinizing hormone; and 3) an increase in heart rate. Each of these responses is associated with an increase in sympathetic outflow, which is a current mechanistic hypothesis for hot flushes.
In this example, a modification of the original procedure of Simpkins et al. (1983) is used, employing ovariectomized Sprague-Dawley rats. Animals at 60 days of age (or 200-225 grams) are ovariectomized, and allowed a 14-day rest period to insure surgical recovery and clearance of endogenous ovarian hormones. Test compound administration (po or sc) is initiated on day 14 post-ovariectomy in a volume of 1 ml/kg. Once daily administration of test compounds continues through the end of the experiment. On days 15 and 17 post-ovariectomy, the rats are lightly anesthetized with isoflurane and a single 75 mg morphine (free base) pellet is surgically implanted subcutaneously.
On day 21 post-ovariectomy, animals are given ketamine (80 mg/kg; IM) 2 hours after final administration of the test compound. Following induction of the anesthesia, rats are then placed in individual plexiglass cages and temperature sensitive probes are applied to the dorsal side of the tail base. Temperature monitoring is initiated 30 minutes after administration of ketamine, and is recorded every 15 seconds for a 1-hr period. To induce morphine withdrawal, 1 mg/kg naloxone is given subcutaneously 15 minutes after start of temperature monitoring. A sharp rise in tail skin temperature typically occurs within 5 minutes post-naloxone injection, and two quantitative endpoints are made: 1) tail skin temperature at 15 minutes post-naloxone, and 2) area under the temperature response curve for the 45 minute post-naloxone measurement period.
Ethinyl estradiol is dosed orally at 0.3 mg/kg as a positive control. […] Using area under the curve measurements, the response induced by each compound is calculated as a percent inhibition of temperature increase versus the morphine control.

C#C[C@]1(O)CC[C@H]2[C@@H]3[C@H](C)CC4=C(CCC(=O)C4)[C@H]3CC[C@@]21C [tibolone]
morphine withdrawal hot flush model responsive to agent: responsive

Clc1cccc(Cl)c1N=C1NCCN1 [clonidine]
morphine withdrawal hot flush model responsive to agent: responsive

CNCCCN1c2ccccc2CCc2ccccc21 [Desipramine, desipramine]
% Inhibition vs. Morphine Control (PO, 10 mg/kg, area under the tail skin temperature curve, 45 min post-naloxone): 101%
% Inhibition vs. Morphine Control (PO, 10 mg/kg, area under the tail skin temperature curve, 45 min post-naloxone, listed as desipramine): 101%

CCOc1ccccc1OC(c1ccccc1)C1CNCCO1 (racemic) [reboxetine]
% Inhibition vs. Morphine Control (rat, in vivo, sc, 5 mg/kg): 94%

medroxyprogesterone
morphine withdrawal hot flush model responsive to agent: responsive

CCOc1ccccc1OC(c1ccccc1)C1CNCCO1 [(R,S)-Reboxetine, (R,S)-reboxetine]
% Inhibition vs. Morphine Control (rat, in vivo, sc, 5 mg/kg): 94%

C#C[C@]1(O)CC[C@H]2[C@@H]3CCc4cc(O)ccc4[C@H]3CC[C@@]21C [Ethinyl Estradiol, Ethinyl estradiol]
% Inhibition vs. Morphine Control (PO, 0.3 mg/kg, area under the tail skin temperature curve, 45 min post-naloxone): 89% and 73% and 90%
% Inhibition vs. Morphine Control (PO, 0.3 mg/kg, area under the tail skin temperature curve, 45 min post-naloxone, listed as Ethinyl estradiol): 70-90%
